The values below come from patent US9730944B2, “Antiviral activity of novel bicyclic heterocycles” (priority 2010, dated 2017).

Values after ≈ are worked out from the molar mass of the structure shown. Like-named read-outs stand apart in the source and are kept apart here.

One data set concerns poliovirus (PV type 1). The experiment in a line: microbe, parasite or virus in culture. It counts as cell-based. The following applies: Enterovirus C, read-out: PV-1 EC50.
The next data set has as its system HIV-1 strain IIIB. Put plainly: Inhibition of replication of HIV-1 (IIIB strain) in MT-4 cells, MTT assay. As to conditions: Human immunodeficiency virus 1, IIIB, MT4, 120 h, read-out: EC50 (μM) HIV-1 (IIIB). It counts as cell-based.
The test system of another data set is poliovirus (PV type 2). The experiment in a line: microbe, parasite or virus in culture. Format: cell-based. The following applies: Enterovirus C, read-out: PV-2 EC50.
The nature of data set [1]: in vitro. As to conditions: human.
The nature of data set [2]: in vitro. As to conditions: African green monkey, PV CC50.
A further data set deals with poliovirus (PV type 3). Put plainly: microbe, parasite or virus in culture. It counts as cell-based. The following applies: Enterovirus C, read-out: PV-3 EC50.
The next data set concerns HIV-2 strain (ROD). Put plainly: Inhibition of replication of HIV-2 (ROD strain) in MT-4 cells, MTT assay. Format: cell-based. As to conditions: Human immunodeficiency virus 2, MT4, 120 h, read-out: EC50 (μM) HIV-2 (ROD).
A short description of data set [3]: in vitro. The following applies: human, PV CC50.
The mark [4] stands for this setting: MT-4 cells, MTT assay, five days after infection, 50% protection from cytopathic effect.

In the case of `Cc1nc(N2CCN(C(=O)COc3ccc(Cl)cc3)CC2)c2cc(-c3ccc(F)cc3)sc2n1` [Example 325, 2-(4-chlorophenoxy)-1-(4-(6-(4-fluorophenyl)-2-methylthieno[2,3-d]pyrimidin-4-yl)piperazin-1-yl)ethanone], the EC50 in the data set on poliovirus (PV type 1) (HeLa) was over 50 µg/mL; in the data set on poliovirus (PV type 1) (Vero) it was over 50 µg/mL; in the data set on HIV-1 strain IIIB (setting [4]) it was over 208 µM; in the data set on poliovirus (PV type 2) (HeLa), at least 50 µg/mL; with poliovirus (PV type 2) (Vero) it was over 50 µg/mL; in the data set on poliovirus (PV type 3) (HeLa), over 50 µg/mL. Moreover, the EC50 in the data set with poliovirus (PV type 3) (Vero) was over 50 µg/mL; in the data set on HIV-2 strain (ROD) (setting [4]) it was over 208 µM. Besides, the results for the CC50 in “in vitro [1]”, in the data set “in vitro [2]” and in “in vitro [3]” were 208 µM, 67.8 µg/mL (≈ 136 µM) and over 50 µg/mL, respectively.

Take `Cc1cccc(NC(=O)N2CCN(c3nc(C(N)=O)nc4sc(-c5ccc(F)cc5)cc34)CC2)c1` [Example 362, 6-(4-fluorophenyl)-4-(4-(m-tolylcarbamoyl)piperazin-1-yl)thieno[2,3-d]pyrimidine-2-carboxamide]: the EC50 with poliovirus (PV type 1) (HeLa) is over 50 µg/mL; with poliovirus (PV type 1) (Vero) it was over 50 µg/mL; with HIV-1 strain IIIB it was at least 255 µM; in the data set with poliovirus (PV type 2) (HeLa), at least 50 µg/mL; in the data set on poliovirus (PV type 2) (Vero), over 50 µg/mL; in the data set on poliovirus (PV type 3) (HeLa), over 50 µg/mL. For the same compound, the results for the EC50 with poliovirus (PV type 3) (Vero) and with HIV-2 strain (ROD) were over 50 µg/mL and at least 255 µM, respectively. Moreover, the results for the CC50 in “in vitro [1]”, in the data set “in vitro [2]” and in the data set “in vitro [3]” were 255 µM, 128 µg/mL (≈ 261 µM) and over 50 µg/mL, respectively.

Regarding `Nc1nc(N2CCN(C(=O)COc3ccc(Cl)cc3)CC2)c2nc(C(Cc3ccccc3)c3ccc(F)cc3)sc2n1` (centres unmarked) [Example 67, 1-(4-(5-amino-2-(1-(4-fluorophenyl)-2-phenylethyl)thiazolo[5,4-d]pyrimidin-7-yl)piperazin-1-yl)-2-(4-chlorophenoxy)ethanone], the EC50 was over 50 µg/mL in the data set on poliovirus (PV type 1) (HeLa); over 50 µg/mL in the data set on poliovirus (PV type 1) (Vero); over 50 µM with HIV-1 strain IIIB (setting [4]); at least 50 µg/mL in the data set with poliovirus (PV type 2) (HeLa); 11.9 µg/mL (≈ 19.7 µM) with poliovirus (PV type 2) (Vero); over 50 µg/mL in the data set with poliovirus (PV type 3) (HeLa). The values for the EC50 in the data set on poliovirus (PV type 3) (Vero) and in the data set on HIV-2 strain (ROD) (setting [4]) were over 50 µg/mL and over 50 µM, respectively. For the same compound, the CC50 in “in vitro [1]” was over 50 µM; in “in vitro [2]” it was 114 µg/mL (≈ 189 µM); in “in vitro [3]”, over 50 µg/mL.

Consider `CC(c1ccc(F)cc1)c1nc2c(N3CCN(C(=O)COc4ccc(Cl)cc4)CC3)nc(N)nc2s1` (centres unmarked) [Example 66, 1-(4-(5-amino-2-(1-(4-fluorophenyl)ethyl)thiazolo[5,4-d]pyrimidin-7-yl)piperazin-1-yl)-2-(4-chlorophenoxy)ethanone], for which the EC50 is over 50 µg/mL in the data set with poliovirus (PV type 1) (HeLa); 0.29 µg/mL (≈ 0.55 µM) in the data set on poliovirus (PV type 1) (Vero); over 50 µM in the data set with HIV-1 strain IIIB (setting [4]); at least 50 µg/mL in the data set with poliovirus (PV type 2) (HeLa); 0.11 µg/mL (≈ 0.209 µM) in the data set on poliovirus (PV type 2) (Vero); over 50 µg/mL with poliovirus (PV type 3) (HeLa). Also, the concentration for a half-maximal effect (EC50) in the data set with poliovirus (PV type 3) (Vero) is 0.56 µg/mL (≈ 1.06 µM); in the data set on HIV-2 strain (ROD) (setting [4]), over 50 µM. The CC50 in the data set “in vitro [1]” is over 50 µM; in “in vitro [2]” it was 130 µg/mL (≈ 246 µM); in “in vitro [3]”, over 50 µg/mL.

Take `Nc1nc(N2CCN(C(=O)COc3ccc(Cl)cc3)CC2)c2nc(CCc3ccc(F)cc3)oc2n1` [Example 172, 1-(4-(5-amino-2-(4-fluorophenethyl)oxazolo[5,4-d]pyrimidin-7-yl)piperazin-1-yl)-2-(4-chlorophenoxy)ethanone]: the EC50 in the data set on poliovirus (PV type 1) (HeLa) was 32 µg/mL (≈ 62.6 µM); in the data set on poliovirus (PV type 1) (Vero) it was 1.16 µg/mL (≈ 2.27 µM); in the data set with HIV-1 strain IIIB it was 1.82 µM; in the data set on poliovirus (PV type 2) (HeLa), 15.6 µg/mL (≈ 30.6 µM); in the data set on poliovirus (PV type 2) (Vero), 1.11 µg/mL (≈ 2.17 µM); in the data set on poliovirus (PV type 3) (HeLa), over 50 µg/mL. For the same compound, the EC50 with poliovirus (PV type 3) (Vero) is 4.36 µg/mL (≈ 8.53 µM); in the data set on HIV-2 strain (ROD), at least 32 µM. In addition, the results for the CC50 in “in vitro [1]”, in the data set “in vitro [2]” and in “in vitro [3]” were 32 µM, 76.2 µg/mL (≈ 149 µM) and over 50 µg/mL, respectively.

Consider `Cc1nc(N2CCN(C(=O)COc3ccc(Cl)cc3)CC2)c2nc(Cc3ccc(F)cc3)oc2n1` [Example 171, 2-(4-chlorophenoxy)-1-(4-(2-(4-fluorobenzyl)-5-methyloxazolo[5,4-d]pyrimidin-7-yl)piperazin-1-yl)ethanone], for which the EC50 in the data set with poliovirus (PV type 1) (HeLa) was over 50 µg/mL; in the data set with poliovirus (PV type 1) (Vero) it was over 50 µg/mL; in the data set on HIV-1 strain IIIB (setting [4]), over 29.6 µM; with poliovirus (PV type 2) (HeLa) it was at least 50 µg/mL; in the data set on poliovirus (PV type 2) (Vero), 0.07 µg/mL (≈ 0.141 µM); in the data set on poliovirus (PV type 3) (HeLa), over 50 µg/mL. For the same compound, the figures for the EC50 in the data set with poliovirus (PV type 3) (Vero) and in the data set with HIV-2 strain (ROD) (setting [4]) were over 50 µg/mL and over 33 µM, respectively. The CC50 in “in vitro [1]” was 33 µM; in the data set “in vitro [2]”, 118 µg/mL (≈ 238 µM); in the data set “in vitro [3]”, 46.1 µg/mL (≈ 93 µM).

In the case of `Nc1nc(N2CCN(C(=O)COc3ccc(Cl)cc3)CC2)c2nc(Cc3ccc(F)cc3)sc2n1` [Example 46, 1-(4-(5-amino-2-(4-fluorobenzyl)thiazolo[5,4-d]pyrimidin-7-yl)piperazin-1-yl)-2-(4-chlorophenoxy)ethanone], the EC50 in the data set on poliovirus (PV type 1) (HeLa) stood at 0.11 µg/mL (≈ 0.214 µM); in the data set with poliovirus (PV type 1) (Vero), 0.12 µg/mL (≈ 0.234 µM); in the data set with HIV-1 strain IIIB (setting [4]), 0.67 µM; in the data set on poliovirus (PV type 2) (HeLa), 0.039 µg/mL (≈ 0.076 µM); in the data set with poliovirus (PV type 2) (Vero), 0.14 µg/mL (≈ 0.273 µM); in the data set on poliovirus (PV type 3) (HeLa), 0.11 µg/mL (≈ 0.214 µM). Besides, the figures for the EC50 in the data set with poliovirus (PV type 3) (Vero) and with HIV-2 strain (ROD) (setting [4]) were over 50 µg/mL and 1.15 µM, respectively. In addition, the values for the CC50 in “in vitro [1]”, in “in vitro [2]” and in “in vitro [3]” were 164 µM, 133 µg/mL (≈ 259 µM) and over 50 µg/mL, respectively.
